Test results: US12220412B2, “Methods for administering corticosteroids” (Sparrow Pharmaceuticals, Inc., priority 2018, dated 2025)

Legend:
HSD-1 [1] = molecular target: T1, HSD-1 (Homo sapiens, UniProt P28845); experiment: Urinary (tetrahydrocortisol+allotetrahydrocortisol)/tetrahydrocortisone ratio as indicator of HSD-1 activity in clinical trial subjects; format: in vivo; set-up: from tissue; host or cells: in vivo, human subjects; conditions: for mean HSD-1 ratio (significantly decreased HSD-1 activity): both days 1 and 18
Experimental: Following a minimum of a 10-hour fast, healthy adult racially diverse male and female subjects were administered Compound A (ASP3662) or placebo for Compound A with 240 mL of room temperature water. Subjects continued to fast from any food and drinks (water was allowed as desired except for 1 hour before and 1 hour after study drug administration) until 4 hours after study drug administration. Urine samples were collected for the measurement of cortisol, cortisone, tetrahydrocortisol (5α, 5β) and tetrahydrocortisone. The cumulative amount of each entity excreted in the urine was calculated for each subject from time zero to 24 hours after dosing (Ae24), from 24 hours after dosing to 48 hours after dosing (Ae48), and Aelast.
The ratio of 5α-tetrahydrocortisol+5β-tetrahydrocortisol to urinary tetrahydrocortisone was used as an indicator of HSD-1 activity. Compound A decreased the 5α-tetrahydrocortisol+5β-tetrahydrocortisol to urinary tetrahydrocortisone ratio with increasing dose compared to placebo, resulting in approximately 80% inhibition at 6 mg. […]

HSD-1 [2] = molecular target: T1, HSD-1; experiment: Direct sigmoidal Emax model of plasma concentration vs brain HSD-1 occupancy (ROIswa); format: in vivo; set-up: from tissue; host or cells: in vivo, human subjects; conditions: brain HSD-1 occupancy (ROIswa) vs plasma concentration
Experimental: Simulations of brain enzyme occupancy were conducted for several dosing schemes for Compound A that involved both an initial dose and a maintenance dose.
The relationship of Compound A plasma concentrations to region of interest size weighted average (ROIswa) HSD-1 occupancy in brain was best described by a direct sigmoidal Emax model (FIG. 5).

[3] = test system: Adults with painful diabetic peripheral neuropathy; experiment: 6-week randomized trial in adults with painful diabetic peripheral neuropathy (pain relief, glycemic control, lipids, blood pressure, weight); format: in vivo, human; set-up: Weight / HbA1c (%) / Plasma glucose / Urine glucose (% positive) / Cholesterol / Triglycerides / Systolic BP (mm Hg) / Diastolic BP (mm Hg): reference not given here
Experimental: Adults with painful diabetic peripheral neuropathy were randomized to treatment with SPI-62, placebo for SPI-62, or pregabalin (positive control) for 6 weeks. […] The trial was terminated. Descriptive analysis on parameters of glycemic control, blood lipids, blood pressure, and weight was conducted. […] As this was an exploratory analysis, statistical hypothesis tests were not performed.

mice = experiment: Corticosterone-induced deficit of Y-maze exploration (alternation rate); format: in vivo; conditions: single doses of 0.3 to 3 mg/kg
From the text: (§1) (a) no CS; (b)-(f) CS; dosage of Compound A (mg/kg): (b) 0; (c) 0.01; (d) 0.03; (e) 1; (f) 3.
Mice typically prefer to explore the novel arm of a Y-maze, a behavior considered indicative of short-term memory. Corticosterone (CS) decreases the percentage of times mice enter the novel arm of a Y maze, and so is considered to have a negative cognitive effect.

magnesium-deficient mice = experiment: Corticosterone (CS)-induced tail biting behavior in magnesium-deficient mice given N-methyl-D-aspartate; format: in vivo; conditions: N-methyl-D-aspartate and corticosterone, single doses of 0.3 to 3 mg/kg
From the text: as §1
Increased tail biting, an anxiety behavior, was induced in magnesium-deficient mice with administration of N-methyl-D-aspartate and corticosterone (CS). Tail biting was not induced by N-methyl-D-aspartate without co-administration of CS (FIG. 9(a)).

[4] = elderly non-Japanese subjects, 20 mg, Day 18 after daily doses Days 5 through 18, 24 h urine
[5] = healthy adult Japanese subjects, 10 mg, Day 1 single dose, 24 h urine
[6] = healthy adult Japanese subjects, 10 mg, Day 18 after daily doses Days 5 through 18, 24 h urine
[7] = healthy adult Japanese subjects, 20 mg, Day 1 single dose, 24 h urine
[8] = healthy adult Japanese subjects, 20 mg, Day 18 after daily doses Days 5 through 18, 24 h urine
[9] = healthy adult Japanese subjects, 50 mg, Day 1 single dose, 24 h urine
[10] = healthy adult Japanese subjects, 50 mg, Day 18 after daily doses Days 5 through 18, 24 h urine
[11] = healthy adult non-Japanese subjects, 20 mg, Day 1 single dose, 24 h urine
[12] = healthy adult non-Japanese subjects, 20 mg, Day 18 after daily doses Days 5 through 18, 24 h urine
[13] = healthy adult non-Japanese subjects, 50 mg, Day 1 single dose, 24 h urine
[14] = healthy adult non-Japanese subjects, 50 mg, Day 18 after daily doses Days 5 through 18, 24 h urine
[15] = adults with painful diabetic peripheral neuropathy, 6 weeks treatment, descriptive analysis

T1 sequence (P28845 whole entry): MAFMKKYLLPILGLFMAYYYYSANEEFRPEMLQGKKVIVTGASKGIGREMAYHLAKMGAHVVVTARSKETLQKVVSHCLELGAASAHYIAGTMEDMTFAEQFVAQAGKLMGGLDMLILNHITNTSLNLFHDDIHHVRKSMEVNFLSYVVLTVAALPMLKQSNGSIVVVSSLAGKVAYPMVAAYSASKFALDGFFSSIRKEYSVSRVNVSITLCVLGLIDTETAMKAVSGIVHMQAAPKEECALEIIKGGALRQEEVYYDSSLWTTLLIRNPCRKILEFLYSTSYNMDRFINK

HSD-1 ratio, Day 1 Median (HSD-1 [1]; elderly non-Japanese subjects, 20 mg, Day 1 single dose, 24 h urine): 0.16
HSD-1 ratio, Day 18 Mean (HSD-1 [1]; [4]): 0.11
HSD-1 ratio, Day 18 Median (HSD-1 [1]; [4]): 0.11
mean HSD-1 ratio (significantly decreased HSD-1 activity) (HSD-1 [1]; elderly non-Japanese subjects, 20 mg): approximately 0.1
HSD-1 ratio (tetrahydrocortisol [5α + 5β]/tetrahydrocortisone), Day 1 Median (HSD-1 [1]; [5]): 0.19
HSD-1 ratio (tetrahydrocortisol [5α + 5β]/tetrahydrocortisone), Day 1 mean (HSD-1 [1]; [5]): 0.18
HSD-1 ratio (tetrahydrocortisol [5α + 5β]/tetrahydrocortisone), Day 18 Mean (HSD-1 [1]; [6]): 0.13
HSD-1 ratio (tetrahydrocortisol [5α + 5β]/tetrahydrocortisone), Day 18 Median (HSD-1 [1]; [6]): 0.12
HSD-1 ratio (tetrahydrocortisol [5α + 5β]/tetrahydrocortisone), Day 1 Median (HSD-1 [1]; [7]): 0.14
HSD-1 ratio (tetrahydrocortisol [5α + 5β]/tetrahydrocortisone), Day 1 mean (HSD-1 [1]; [7]): 0.14
HSD-1 ratio (tetrahydrocortisol [5α + 5β]/tetrahydrocortisone), Day 18 Mean (HSD-1 [1]; [8]): 0.09
HSD-1 ratio (tetrahydrocortisol [5α + 5β]/tetrahydrocortisone), Day 18 Median (HSD-1 [1]; [8]): 0.10
HSD-1 ratio (tetrahydrocortisol [5α + 5β]/tetrahydrocortisone), Day 1 Median (HSD-1 [1]; [9]): 0.14
HSD-1 ratio (tetrahydrocortisol [5α + 5β]/tetrahydrocortisone), Day 1 mean (HSD-1 [1]; [9]): 0.14
HSD-1 ratio (tetrahydrocortisol [5α + 5β]/tetrahydrocortisone), Day 18 Mean (HSD-1 [1]; [10]): 0.10
HSD-1 ratio (tetrahydrocortisol [5α + 5β]/tetrahydrocortisone), Day 18 Median (HSD-1 [1]; [10]): 0.09
mean HSD-1 ratio (significantly decreased HSD-1 activity) (HSD-1 [1]; healthy adult Japanese subjects, doses of 10 mg, 20 mg and 50 mg): 0.1 to 0.2
HSD-1 activity (urinary ratio) (HSD-1 [1]; healthy adult non-Japanese subjects, 2 mg, 0.7 mg, 0.4 mg and 0.2 mg cohorts, single dose Day 1 then daily doses): significantly decreased
HSD-1 ratio (tetrahydrocortisol [5α + 5β]/tetrahydrocortisone), Day 1 Median (HSD-1 [1]; [11]): 0.16
HSD-1 ratio (tetrahydrocortisol [5α + 5β]/tetrahydrocortisone), Day 1 mean (HSD-1 [1]; [11]): 0.17
HSD-1 ratio (tetrahydrocortisol [5α + 5β]/tetrahydrocortisone), Day 18 Mean (HSD-1 [1]; [12]): 0.12
HSD-1 ratio (tetrahydrocortisol [5α + 5β]/tetrahydrocortisone), Day 18 Median (HSD-1 [1]; [12]): 0.12
HSD-1 ratio (tetrahydrocortisol [5α + 5β]/tetrahydrocortisone), Day 1 Median (HSD-1 [1]; [13]): 0.16
HSD-1 ratio (tetrahydrocortisol [5α + 5β]/tetrahydrocortisone), Day 1 mean (HSD-1 [1]; [13]): 0.16
HSD-1 ratio (tetrahydrocortisol [5α + 5β]/tetrahydrocortisone), Day 18 Mean (HSD-1 [1]; [14]): 0.11
HSD-1 ratio (tetrahydrocortisol [5α + 5β]/tetrahydrocortisone), Day 18 Median (HSD-1 [1]; [14]): 0.10
mean HSD-1 ratio (significantly decreased HSD-1 activity) (HSD-1 [1]; healthy adult non-Japanese subjects, doses of 20 mg and 50 mg): approximately 0.1
inhibition (decrease of 5α-tetrahydrocortisol+5β-tetrahydrocortisol to urinary tetrahydrocortisone ratio compared to placebo) (HSD-1 [1]; healthy adult subjects, fasted, single dose 6 mg): approximately 80%
Hill coefficient, estimate (HSD-1 [2]): 1.53
Maximum effect, Emax (% HSD-1 occupancy), estimate (HSD-1 [2]): 97.6%
EC50 (HSD-1 [2]; read-out: Plasma concentration when half Emax is achieved, EC50, estimate (converted)): 0.24 nM
Structure (SMILES): Cn1c(-c2ccc(C(N)=O)cc2F)nnc1C(C)(C)Oc1c(F)cc(Cl)cc1F [Compound A]
level of inhibition of urinary HSD-1 ratio on increasing the dose (HSD-1 [1]; healthy adult subjects, fasted, single dose above 6 mg): did not substantially increase the level of inhibition
Cholesterol [3, 15]: -0.48 ± 0.12 mM
Diastolic BP (mm Hg) [3, 15]: 0 ± 2 mm Hg
HbA1c (%) [3, 15]: −0.31 ± 0.11%
Plasma glucose [3, 15]: 0.084 ± 0.38 mM
Systolic BP (mm Hg) [3, 15]: −1 ± 3 mm Hg
Triglycerides [3, 15]: -0.11 ± 0.09 mM
Urine glucose (% positive) [3, 15]: −2.5 ± 3.0 % positive
Weight [3, 15]: -0.3 ± 0.3 kg
trends compared to placebo on HbA1c, plasma glucose, urine glucose, cholesterol and triglycerides (not on systolic or diastolic blood pressure or weight) ([3]; exploratory descriptive analysis, no hypothesis tests): Favorable numeric trends
pain relief compared to the placebo group ([3]; interim review after 150 subjects completed treatment): not any better
Y-maze novel arm exploration behavior (alternation rate) after corticosterone (mice): restored a more normal behavior pattern
CS-dependent increase of tail biting behavior (magnesium-deficient mice): fully reversed
